Laboratory results reported in ChEMBL document CHEMBL1201862, “PubChem BioAssay data set” (2004).
Activity calls are given as the source filed them.

What was measured:
[1] = molecular target: 1-acylglycerol-3-phosphate O-acyltransferase ABHD5/Perilipin-5 (Homo sapiens, UniProt Q00G26+Q8WTS1); assay: Luminescence-based biochemical high throughput dose response assay for inhibitors of the interaction of the lipase co-activator protein, abhydrolase domain containing 5 (ABHD5) with perilipin-5 (MLDP; PLIN5) (2K validation set). [Related pubchem assays (depositor defined):AID493035, AID493241]
Perilipin-1/ABHD5 = Perilipin-1/ABHD5 (Homo sapiens, UniProt O60240+Q8WTS1); assay: Luminescence-based biochemical high throughput dose response assay for inhibitors of the interaction of the lipase co-activator protein, abhydrolase domain containing 5 (ABHD5) with perilipin-1 (PLIN1) (2K validation set). [Related pubchem assays (depositor defined):AID493027, AID493057]
Integrin alpha-4 = Integrin alpha-4 (Homo sapiens, UniProt P13612); assay: VLA-4 integrin allosteric ligands, SAR follow-up, cell-based, LIBS antibody binding, flow cytometry (AID 488791); format: functional
Chain of Integrin alpha-4 (P13612 whole entry): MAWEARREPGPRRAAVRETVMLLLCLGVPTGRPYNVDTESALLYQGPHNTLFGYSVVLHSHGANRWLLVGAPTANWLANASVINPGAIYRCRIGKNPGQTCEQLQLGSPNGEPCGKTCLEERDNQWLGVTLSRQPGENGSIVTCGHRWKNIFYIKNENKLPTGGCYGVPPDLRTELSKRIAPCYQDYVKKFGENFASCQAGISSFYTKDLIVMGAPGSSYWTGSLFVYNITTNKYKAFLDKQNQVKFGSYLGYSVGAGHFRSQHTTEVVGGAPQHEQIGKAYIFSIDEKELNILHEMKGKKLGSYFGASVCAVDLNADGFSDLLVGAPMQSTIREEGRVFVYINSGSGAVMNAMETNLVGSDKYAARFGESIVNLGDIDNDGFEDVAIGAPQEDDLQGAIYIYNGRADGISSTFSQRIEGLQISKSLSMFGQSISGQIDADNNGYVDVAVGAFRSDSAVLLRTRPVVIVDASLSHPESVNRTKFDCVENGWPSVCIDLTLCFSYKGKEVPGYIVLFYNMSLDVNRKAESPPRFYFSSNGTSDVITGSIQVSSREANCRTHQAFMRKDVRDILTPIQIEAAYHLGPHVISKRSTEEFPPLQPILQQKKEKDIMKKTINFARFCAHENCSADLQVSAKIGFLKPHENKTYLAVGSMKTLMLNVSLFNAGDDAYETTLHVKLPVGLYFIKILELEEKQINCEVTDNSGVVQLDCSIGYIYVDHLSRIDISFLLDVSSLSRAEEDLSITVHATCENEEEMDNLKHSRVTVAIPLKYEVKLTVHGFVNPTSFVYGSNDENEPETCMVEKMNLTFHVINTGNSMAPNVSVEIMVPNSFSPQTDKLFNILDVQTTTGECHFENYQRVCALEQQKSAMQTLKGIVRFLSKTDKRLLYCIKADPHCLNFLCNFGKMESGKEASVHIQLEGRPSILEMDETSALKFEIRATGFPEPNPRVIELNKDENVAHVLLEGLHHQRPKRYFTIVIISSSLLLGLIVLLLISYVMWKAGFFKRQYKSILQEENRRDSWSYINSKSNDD

[2] = molecular target: Protein-tyrosine kinase 2-beta (Homo sapiens, UniProt Q14289);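 also: potency of inhibitors of PYK2 kinase phosphorylation of poly-GT substrate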
Chain of Protein-tyrosine kinase 2-beta (Q14289 whole entry): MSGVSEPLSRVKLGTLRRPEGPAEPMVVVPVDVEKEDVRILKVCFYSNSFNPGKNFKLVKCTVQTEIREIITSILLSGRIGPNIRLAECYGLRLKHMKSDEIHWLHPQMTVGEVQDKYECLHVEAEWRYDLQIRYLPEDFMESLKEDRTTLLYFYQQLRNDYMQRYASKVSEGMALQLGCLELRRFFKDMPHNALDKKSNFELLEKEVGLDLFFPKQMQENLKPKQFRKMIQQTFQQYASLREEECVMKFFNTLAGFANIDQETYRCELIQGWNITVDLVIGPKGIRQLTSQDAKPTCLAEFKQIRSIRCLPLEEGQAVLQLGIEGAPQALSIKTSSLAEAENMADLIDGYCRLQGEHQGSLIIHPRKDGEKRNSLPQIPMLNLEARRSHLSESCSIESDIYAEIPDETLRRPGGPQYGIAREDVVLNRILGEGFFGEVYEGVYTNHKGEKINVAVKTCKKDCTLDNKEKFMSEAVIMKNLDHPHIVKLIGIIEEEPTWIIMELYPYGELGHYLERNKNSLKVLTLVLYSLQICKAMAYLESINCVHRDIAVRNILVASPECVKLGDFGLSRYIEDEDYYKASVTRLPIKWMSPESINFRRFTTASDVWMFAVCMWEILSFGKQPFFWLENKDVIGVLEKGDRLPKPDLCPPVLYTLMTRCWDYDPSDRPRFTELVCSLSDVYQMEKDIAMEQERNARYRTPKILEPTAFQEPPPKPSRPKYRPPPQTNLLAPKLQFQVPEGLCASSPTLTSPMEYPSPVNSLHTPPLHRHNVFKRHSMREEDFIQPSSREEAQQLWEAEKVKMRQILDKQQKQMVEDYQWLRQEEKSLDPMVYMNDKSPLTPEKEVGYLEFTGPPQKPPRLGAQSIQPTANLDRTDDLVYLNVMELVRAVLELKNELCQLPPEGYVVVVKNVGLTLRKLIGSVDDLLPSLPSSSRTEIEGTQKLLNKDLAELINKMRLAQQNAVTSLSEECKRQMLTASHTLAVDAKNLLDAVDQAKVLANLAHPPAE

[3] = growth suppression of beta-catenin-knockout colon cells, dose response, cell-based, HCT116, human colon tumor (AID 1045); format: functional;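 also: HCT116 colon tumor cells with beta catenin knocked out; cells exposed to compound for 60 hours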
[4] = inhibitors of intracellular T. cruzi replication, confirmation, NIH3T3 host cells, beta-gal luminescence (AID 2044); format: functional, cell-based;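 also: intracellular parasites grown in NIH/3T3 mouse fibroblasts as host cells; luminescent beta-galactosidase reporter signal from transgenic T. cruzi replicating inside host cells; inhibitors lower the luminescence signal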
[5] = cytotoxicity toward NIH3T3 fibroblasts, dose response, counter-screen, cell-based, ATP luminescence, mouse fibroblasts (AID 2010); format: functional;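 also: cells exposed to compound for about 90 hours before reading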
Coagulation factor XII = Coagulation factor XII (Homo sapiens, UniProt P00748); assay: Factor XIIa Dose Response Confirmation from Single Well HTS. [Related pubchem assays (depositor defined):AID701]; format: functional
[6] = molecular target: T1, G-protein coupled receptor 35 (Homo sapiens, UniProt Q9HC97); assay: SAR analysis of Antagonists of the GPR35 Receptor using an Image-Based Assay - Set 4. [Related pubchem assays (depositor defined):[…]]; format: functional
T1 sequence (Q9HC97 whole entry): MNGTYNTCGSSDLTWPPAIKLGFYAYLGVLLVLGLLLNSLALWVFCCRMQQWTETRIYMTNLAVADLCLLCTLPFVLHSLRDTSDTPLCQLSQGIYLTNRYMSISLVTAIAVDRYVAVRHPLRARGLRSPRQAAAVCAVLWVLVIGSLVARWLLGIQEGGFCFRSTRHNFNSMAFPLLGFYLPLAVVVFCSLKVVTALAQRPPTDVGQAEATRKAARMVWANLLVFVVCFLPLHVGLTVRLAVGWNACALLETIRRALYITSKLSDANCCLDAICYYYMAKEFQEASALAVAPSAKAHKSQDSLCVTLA

[7] = molecular target: T1, G-protein coupled receptor 35; assay: SAR analysis of Agonists of the GPR35 Receptor using an Image-Based Assay - Set 3. [Related pubchem assays (depositor defined):AID1961, AID1965]; format: functional
Cannabinoid receptor 1 [8] = molecular target: T2, Cannabinoid receptor 1 (Homo sapiens, UniProt P21554); assay: SAR analysis of agonists of the Cannabinoid Receptor 1 using an Image-Based Assay - Set 3. [Related pubchem assays (depositor defined):AID1961, AID1965]; format: functional
T2 sequence (P21554 whole entry): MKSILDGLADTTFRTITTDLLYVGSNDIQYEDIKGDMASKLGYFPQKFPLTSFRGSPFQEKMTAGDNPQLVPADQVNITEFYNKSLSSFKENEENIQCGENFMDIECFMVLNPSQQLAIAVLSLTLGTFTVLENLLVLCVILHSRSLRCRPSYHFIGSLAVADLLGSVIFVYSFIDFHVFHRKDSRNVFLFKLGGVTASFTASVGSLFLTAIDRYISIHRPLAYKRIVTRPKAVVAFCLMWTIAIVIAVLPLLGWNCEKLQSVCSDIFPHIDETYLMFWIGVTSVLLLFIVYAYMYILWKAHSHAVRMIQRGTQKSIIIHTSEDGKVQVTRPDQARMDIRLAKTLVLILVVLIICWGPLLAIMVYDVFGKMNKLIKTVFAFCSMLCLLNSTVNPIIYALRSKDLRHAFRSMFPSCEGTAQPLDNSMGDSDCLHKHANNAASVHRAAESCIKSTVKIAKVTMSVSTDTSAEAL

Cannabinoid receptor 2 [9] = molecular target: T3, Cannabinoid receptor 2 (Homo sapiens, UniProt P34972); assay: SAR analysis of antagonists of the Cannabinoid Receptor 2 using an Image-Based Assay - Set 2. [Related pubchem assays (depositor defined):AID1961, AID1965]; format: functional
T3 sequence (P34972 whole entry): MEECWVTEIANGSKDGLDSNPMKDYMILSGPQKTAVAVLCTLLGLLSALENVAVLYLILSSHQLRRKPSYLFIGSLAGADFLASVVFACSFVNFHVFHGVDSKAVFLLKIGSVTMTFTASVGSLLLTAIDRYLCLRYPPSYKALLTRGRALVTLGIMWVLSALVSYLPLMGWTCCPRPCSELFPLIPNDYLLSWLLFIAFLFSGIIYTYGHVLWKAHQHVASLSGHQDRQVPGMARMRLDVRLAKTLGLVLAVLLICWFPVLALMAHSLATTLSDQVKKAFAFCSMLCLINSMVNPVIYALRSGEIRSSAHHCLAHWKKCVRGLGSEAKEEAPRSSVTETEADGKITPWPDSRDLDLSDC

[10] = molecular target: G-protein coupled receptor 55 (Homo sapiens, UniProt Q9Y2T6); assay: SAR analysis of selective Agonists of GPR55 using an Image-Based Assay - Set 2. [Related pubchem assays (depositor defined):AID1961, AID1965]; format: functional
Cannabinoid receptor 2 [11] = molecular target: T3, Cannabinoid receptor 2; assay: SAR analysis of agonists of the Cannabinoid Receptor 2 using an Image-Based Assay - Set 2. [Related pubchem assays (depositor defined):AID1961, AID1965]; format: functional
Cannabinoid receptor 1 [12] = molecular target: T2, Cannabinoid receptor 1; assay: SAR analysis of antagonists of the Cannabinoid Receptor 1 using an Image-Based Assay - Set 3. [Related pubchem assays (depositor defined):AID1961, AID1965]; format: functional
[13] = THP-1 cell cytotoxicity, dose response, cytotoxicity control for non-replicating M. tuberculosis project (AID 489025); format: functional
[14] = HepG2 cell cytotoxicity, dose response, cytotoxicity control for non-replicating M. tuberculosis project (AID 489018); format: functional; settings: Mycobacterium tuberculosis
[15] = molecular target: T4, Neuropeptides B/W receptor type 1 (Homo sapiens, UniProt P48145); assay: GPR7 antagonist potency, late-stage follow-up, cell-based, fluorescence, dose response (AID 463251); format: functional
T4 sequence (P48145 whole entry): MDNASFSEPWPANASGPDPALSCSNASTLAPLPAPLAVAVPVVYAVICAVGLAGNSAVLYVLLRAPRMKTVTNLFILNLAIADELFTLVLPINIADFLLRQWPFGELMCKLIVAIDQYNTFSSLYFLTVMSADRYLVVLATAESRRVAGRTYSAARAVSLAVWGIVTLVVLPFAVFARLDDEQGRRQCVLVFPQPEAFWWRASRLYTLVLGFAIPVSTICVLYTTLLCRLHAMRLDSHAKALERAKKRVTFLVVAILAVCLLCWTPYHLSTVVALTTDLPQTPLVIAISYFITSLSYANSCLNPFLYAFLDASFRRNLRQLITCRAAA

[16] = molecular target: Melanin-concentrating hormone receptor 1 (Homo sapiens, UniProt Q99705); assay: Late-stage fluorescence-based counterscreen for antagonists of the G-protein coupled receptor 7 (GPR7): cell-based dose response assay to identify antagonists of the melanin-concentrating hormone receptor 1 (MCHR1). [Related pubchem assays (depositor defined):AID1861, AID1880, AID1952, AID2148, AID2251, AID2257, AID485339]; format: functional;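 also: stimulated with 30 nM MCH peptide agonist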
Chain of Melanin-concentrating hormone receptor 1 (Q99705 whole entry): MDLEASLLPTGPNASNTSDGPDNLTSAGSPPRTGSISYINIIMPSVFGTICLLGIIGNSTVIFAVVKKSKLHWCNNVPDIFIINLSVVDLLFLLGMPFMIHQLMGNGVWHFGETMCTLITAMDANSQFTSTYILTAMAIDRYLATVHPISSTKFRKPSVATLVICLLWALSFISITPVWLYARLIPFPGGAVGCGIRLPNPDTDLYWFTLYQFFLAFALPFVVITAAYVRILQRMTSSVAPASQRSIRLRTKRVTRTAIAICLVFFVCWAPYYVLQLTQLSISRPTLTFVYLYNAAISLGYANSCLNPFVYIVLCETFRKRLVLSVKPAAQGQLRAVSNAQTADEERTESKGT

[17] = growth suppression of PTEN-null colon cells, dose response, cell-based, HCT116 PTEN knockout (AID 1047); format: functional;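 also: HCT116 colon tumor cells with PTEN knocked out; cells exposed to compound for 60 hours before readout; potency for loss of cell viability measured by luminescence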
CAAX prenyl protease 2 = CAAX prenyl protease 2 (Saccharomyces cerevisiae S288c, UniProt Q03530); format: biochemical
Vero = assay: West Nile virus antiviral activity, cell-based, CPE readout (AID 1621); format: functional; settings: Chlorocebus sabaeus
Trypsin = Trypsin (Sus scrofa, UniProt P00761); assay: porcine trypsin inhibitors, dose response, selectivity assay for Rce1 protease inhibitor project, biochemical, quenched peptide fluorescence, cherry-pick (AID 488789)
Chain of Trypsin (P00761 whole entry): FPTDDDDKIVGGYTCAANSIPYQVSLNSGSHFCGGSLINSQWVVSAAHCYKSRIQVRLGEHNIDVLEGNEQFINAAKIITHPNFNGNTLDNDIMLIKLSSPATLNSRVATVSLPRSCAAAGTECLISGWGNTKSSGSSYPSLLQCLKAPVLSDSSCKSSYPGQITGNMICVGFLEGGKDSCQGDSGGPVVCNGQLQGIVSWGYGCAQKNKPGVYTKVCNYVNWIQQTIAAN

[18] = molecular target: T5, DNA repair and recombination protein RAD54-like (Homo sapiens, UniProt Q92698); assay: inhibitors of human RAD54 branch migration, confirmation, biochemical, fluorescence, cherry-picked samples, dose series (AID 651657); format: functional
T5 sequence (Q92698 whole entry): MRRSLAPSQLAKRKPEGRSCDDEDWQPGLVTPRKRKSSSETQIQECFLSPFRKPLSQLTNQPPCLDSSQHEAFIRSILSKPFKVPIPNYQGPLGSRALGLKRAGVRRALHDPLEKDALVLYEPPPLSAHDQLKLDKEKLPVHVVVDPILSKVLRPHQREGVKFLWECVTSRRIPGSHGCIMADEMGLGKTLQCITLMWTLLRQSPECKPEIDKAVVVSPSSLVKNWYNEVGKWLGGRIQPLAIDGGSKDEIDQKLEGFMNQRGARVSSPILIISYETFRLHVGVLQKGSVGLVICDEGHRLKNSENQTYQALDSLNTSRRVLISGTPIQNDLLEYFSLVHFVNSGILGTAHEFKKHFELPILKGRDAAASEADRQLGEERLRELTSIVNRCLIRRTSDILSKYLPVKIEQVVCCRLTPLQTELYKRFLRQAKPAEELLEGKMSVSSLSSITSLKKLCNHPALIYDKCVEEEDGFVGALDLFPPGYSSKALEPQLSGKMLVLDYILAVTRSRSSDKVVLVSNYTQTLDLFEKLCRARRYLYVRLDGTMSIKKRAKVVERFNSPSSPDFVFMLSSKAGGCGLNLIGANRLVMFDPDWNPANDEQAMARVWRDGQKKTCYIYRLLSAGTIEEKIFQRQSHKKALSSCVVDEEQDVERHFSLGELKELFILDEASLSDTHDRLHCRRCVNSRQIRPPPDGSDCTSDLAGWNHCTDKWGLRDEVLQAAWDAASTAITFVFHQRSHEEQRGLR

[19] = Luminescence Cell Based Dose Confirmation HTS to Identify Activators of 5'UTR Stem-Loop Driven Alpha-Synuclein mRNA Translation in H4 Neuroglioblastoma Cells. [Related pubchem assays (depositor defined):AID1813, AID1829]; format: functional; settings: Homo sapiens
[20] = molecular target: Dual specificity protein phosphatase 3 (Homo sapiens, UniProt P51452); assay: SAR VHR1 Fluorescent Assay for In Vitro dose response studies Set 2. [Related pubchem assays (depositor defined):AID1654, AID1661, AID1878]; format: functional
[21] = molecular target: T6, Tyrosine-protein phosphatase non-receptor type 7 (Homo sapiens, UniProt P35236); assay: redox-dependent HePTP inhibition, mechanism study, biochemical, fluorescence (AID 2068); format: functional
T6 sequence (P35236 whole entry): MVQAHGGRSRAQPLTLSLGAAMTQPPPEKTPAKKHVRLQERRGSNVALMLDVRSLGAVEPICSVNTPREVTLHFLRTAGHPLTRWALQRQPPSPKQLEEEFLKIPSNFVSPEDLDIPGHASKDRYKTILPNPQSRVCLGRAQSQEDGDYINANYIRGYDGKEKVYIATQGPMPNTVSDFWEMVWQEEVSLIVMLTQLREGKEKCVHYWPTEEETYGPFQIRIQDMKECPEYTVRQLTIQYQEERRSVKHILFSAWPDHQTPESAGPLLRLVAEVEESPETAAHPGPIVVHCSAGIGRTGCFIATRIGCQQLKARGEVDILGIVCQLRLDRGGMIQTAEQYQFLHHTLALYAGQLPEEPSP

[22] = molecular target: T7, Dual specificity protein phosphatase 6 (Rattus norvegicus, UniProt Q64346); format: functional;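 also: confirmatory in vitro dose-response testing of MKP-3 inhibition; recombinant His-tagged MKP-3 made in E. coli BL21 with OMFP substrate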
T7 sequence (Q64346 whole entry): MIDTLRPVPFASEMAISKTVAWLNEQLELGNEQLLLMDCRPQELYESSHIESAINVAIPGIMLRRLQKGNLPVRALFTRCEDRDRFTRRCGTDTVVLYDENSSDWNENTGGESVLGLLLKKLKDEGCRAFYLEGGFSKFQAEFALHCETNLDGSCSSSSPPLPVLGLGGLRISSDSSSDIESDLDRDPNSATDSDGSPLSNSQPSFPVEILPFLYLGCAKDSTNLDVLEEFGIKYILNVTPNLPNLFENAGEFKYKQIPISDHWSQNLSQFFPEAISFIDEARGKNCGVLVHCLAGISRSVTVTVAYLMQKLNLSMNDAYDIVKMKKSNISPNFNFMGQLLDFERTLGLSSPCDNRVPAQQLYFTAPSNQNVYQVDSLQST

[23] = molecular target: T8, Kappa-type opioid receptor (Homo sapiens, UniProt P41145); assay: SAR analysis of small molecule antagonists of the kappa opioid receptor via a luminescent beta-arrestin assay - Set 3. [Related pubchem assays (depositor defined):AID1777, AID1778, AID1785, AID1786, AID1966, AID2133, AID2136, AID2285, AID2495]; format: functional
T8 sequence (P41145 whole entry): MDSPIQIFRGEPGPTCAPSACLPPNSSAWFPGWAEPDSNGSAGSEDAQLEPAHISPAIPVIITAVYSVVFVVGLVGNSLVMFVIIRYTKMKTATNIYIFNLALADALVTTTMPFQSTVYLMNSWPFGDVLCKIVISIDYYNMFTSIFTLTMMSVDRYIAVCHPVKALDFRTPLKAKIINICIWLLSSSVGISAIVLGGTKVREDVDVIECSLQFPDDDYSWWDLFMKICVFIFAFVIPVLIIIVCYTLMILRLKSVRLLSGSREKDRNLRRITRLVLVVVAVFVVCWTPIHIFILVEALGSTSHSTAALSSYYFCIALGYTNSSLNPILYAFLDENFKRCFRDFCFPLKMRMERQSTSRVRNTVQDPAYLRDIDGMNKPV

[24] = molecular target: T8, Kappa-type opioid receptor; assay: SAR analysis of Antagonists of the Kappa Opioid Receptor (KOR) using an Image-Based Assay - Set 3. [Related pubchem assays (depositor defined):AID1777, AID1785]; format: functional
Mu-type opioid receptor = Mu-type opioid receptor (Homo sapiens, UniProt P35372); assay: SAR Analysis of Antagonists of the MOR Receptor using an Image-Based Assay - Set 3. [Related pubchem assays (depositor defined):AID1777, AID1785, AID1786, AID1966, AID2133, AID2136, AID2284, AID2285, AID2420]; format: functional
Chain of Mu-type opioid receptor (P35372 whole entry): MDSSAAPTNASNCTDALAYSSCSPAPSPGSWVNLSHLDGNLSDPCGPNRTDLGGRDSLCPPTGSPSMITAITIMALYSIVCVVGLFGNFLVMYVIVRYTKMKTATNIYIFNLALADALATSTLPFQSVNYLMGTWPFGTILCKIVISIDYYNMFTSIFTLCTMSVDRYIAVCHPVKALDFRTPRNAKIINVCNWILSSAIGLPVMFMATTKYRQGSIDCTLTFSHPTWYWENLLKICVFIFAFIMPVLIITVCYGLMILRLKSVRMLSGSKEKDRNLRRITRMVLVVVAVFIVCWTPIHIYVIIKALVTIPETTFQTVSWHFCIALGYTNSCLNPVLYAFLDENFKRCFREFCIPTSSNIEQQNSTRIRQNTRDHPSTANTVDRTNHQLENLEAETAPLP

[25] = molecular target: Delta-type opioid receptor (Homo sapiens, UniProt P41143); assay: SAR Analysis of Antagonists of the DOR Receptor using an Image-Based Assay - Set 3. [Related pubchem assays (depositor defined):AID1777, AID1785]; format: functional;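 also: U2OS cells expressing DOR1 and beta-arrestin GFP stimulated with 100 nM SNC80; imaging of GFP-tagged beta-arrestin moving into spots after receptor activation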
Chain of Delta-type opioid receptor (P41143 whole entry): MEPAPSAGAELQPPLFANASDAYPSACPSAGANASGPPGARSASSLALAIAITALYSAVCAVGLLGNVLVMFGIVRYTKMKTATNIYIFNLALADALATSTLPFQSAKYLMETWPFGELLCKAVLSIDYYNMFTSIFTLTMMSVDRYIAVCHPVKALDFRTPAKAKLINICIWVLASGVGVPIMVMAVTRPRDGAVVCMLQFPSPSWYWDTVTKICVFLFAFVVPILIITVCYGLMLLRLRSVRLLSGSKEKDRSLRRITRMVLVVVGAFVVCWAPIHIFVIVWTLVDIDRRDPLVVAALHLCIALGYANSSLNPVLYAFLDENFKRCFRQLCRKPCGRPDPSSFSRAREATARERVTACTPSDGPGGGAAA

[26] = molecular target: T8, Kappa-type opioid receptor; assay: SAR analysis of Antagonists of the Kappa Opioid Receptor (KOR) using an Image-Based Assay - Set 4. [Related pubchem assays (depositor defined):AID1777, AID1785]; format: functional
[27] = molecular target: T8, Kappa-type opioid receptor; assay: SAR analysis of small molecule antagonists of the kappa opioid receptor via a luminescent beta-arrestin assay - Set 4. [Related pubchem assays (depositor defined):AID1777, AID1778, AID1785, AID1786, AID1966, AID2133, AID2136, AID2285]; format: functional

## O=C(CN1C(=O)/C(=C/c2cccc(Br)c2)SC1=S)Nc1cccnc1
[1]
  IC50: 16 µM (inactive)
Perilipin-1/ABHD5
  IC50: 20.8 µM (inactive)

## O=C(COc1ccc(/C=N/NC(=O)c2cc3ccccc3o2)cc1Cl)Nc1ccccc1
Integrin alpha-4
  EC50: 23.4 µM (active)
[2]
  IC50: 2.65 µM (active)
[3]
  EC50: 191 µM (active)
[4]
  EC50: 2 µM (active)
[5]
  EC50: 19.2 µM (active)

## Cc1ccccc1C(=O)/N=c1\sccn1C
Coagulation factor XII
  IC50: > 50 µM (inactive)

## CCc1cc(C(=O)Nc2cc(S(=O)(=O)N3CCOCC3)ccc2OC)sc1C
[6]
  IC50: > 32 µM (inactive)
[7]
  EC50: > 32 µM (inactive)
Cannabinoid receptor 1 [8]
  EC50: > 32 µM (inactive)
Cannabinoid receptor 2 [9]
  IC50: > 32 µM (inactive)
[10]
  EC50: 2.22 µM (active)
Cannabinoid receptor 2 [11]
  EC50: > 32 µM (inactive)
Cannabinoid receptor 1 [12]
  IC50: > 32 µM (inactive)

## Clc1ccc(SCCCCN2CCNCC2)cc1
[13]
  CC50: > 40 µM (active)
[14]
  CC50: > 20 µM (active)

## CCOc1ccc(CCOc2c(Cl)cnn(-c3ccc(C)cc3)c2=O)cc1OCC
[15]
  IC50: 5.5 µM (active)
[16]
  IC50: 14.5 µM (inactive)

## COc1ccc(C2c3c(ncn(CCN4CCOCC4)c3=N)Oc3ccc4ccccc4c32)cc1 (configuration not stated)
[17]
  EC50: 12.7 µM (active)
CAAX prenyl protease 2
  AC50: 15.7 µM (active)
Vero
  IC50: 18.7 µM (active)
[3]
  EC50: 11.1 µM (active)

## COc1ccc2c(c1)c1ncn(CCN3CCCC3)c(=O)c1n2C
Trypsin
  AC50: 19.7 µM (active)
[18]
  AC50: 23.3 µM (active)

## Cc1ccc(Nc2ccc(-c3ccncc3)s2)c(Br)c1
[19]
  EC50: 3.92 µM (active)

## O=C(O)c1ccc(C=c2sc(=CC(=O)c3ccco3)[nH]c2=O)cc1
[20]
  IC50: 16.2 µM (active)
[21]
  IC50: 4.09 µM (active)
[22]
  IC50: > 100 µM (inactive)

## CCc1ccc(S(=O)(=O)NCc2ccc(C(=O)NCCN3Cc4ccccc4C3)cc2)cc1
[23]
  IC50: > 20 µM (inactive)
[24]
  IC50: > 32 µM (inactive)
Mu-type opioid receptor
  IC50: > 32 µM (inactive)
[25]
  IC50: > 32 µM (inactive)

## CC(C)Cc1ccc(S(=O)(=O)NCc2ccc(C(=O)NCCN(Cc3ccccc3)C(C)C)cc2)cc1
Mu-type opioid receptor
  IC50: > 32 µM (inactive)
[25]
  IC50: > 32 µM (inactive)
[26]
  IC50: 0.595 µM (active)
[27]
  IC50: 4.02 µM (active)
